Measurements reported in US12697330B2, “Therapeutic methods using vadadustat” (Akebia Therapeutics, Inc., priority 2021, dated 2026).

System: erythropoietin (EPO)
Test: Phase 2 study, Main Study: pharmacodynamics, Baseline-Unadjusted serum EPO concentration
Type: in vivo, human
Description: PK/PD Endpoints. An exposure-response analysis of vadadustat and PD measures were conducted as deemed appropriate. The PK parameters included (but were not limited to) the following: area under concentration-time curve from dosing to last measurable concentration (AUClast), area under concentration-time curve from dosing to infinity (AUCinf), Cmax, apparent total body clearance (CL/F), apparent volume of distribution (Vd/F), and terminal half-life (t1/2). The PD parameters included (but were not limited to) the following: EPO, reticulocytes, iron, ferritin, TIBC, and hepcidin.
PK population: included all randomized subjects who received study drug (vadadustat or epoetin alfa) and had enough drug concentrations to estimate AUC and Cmax. Analysis of this population was based on the dose amount taken at the date of PK sampling for the vadadustat group.
PD parameters for serum EPO concentration are presented by epoetin alfa stratification for vadadustat treatment groups in Table 7, Table 8a and Table 8b (baseline-unadjusted) and Table 9, Table 10a and Table 10b (baseline-adjusted).

[1] = Vada 150 mg, Week 11, High Epoetin Alfa Stratum >90 to <300 U/kg/week
[2] = Vada 150 mg, Week 11, Low Epoetin Alfa Stratum ≤90 U/kg/week
[3] = Vada 300 mg, Week 1 + 1, High Epoetin Alfa Stratum >90 to <300 U/kg/week
[4] = Vada 300 mg, Week 1 + 1, Low Epoetin Alfa Stratum ≤90 U/kg/week
[5] = Vada 300 mg, Week 1, High Epoetin Alfa Stratum >90 to <300 U/kg/week
[6] = Vada 300 mg, Week 1, Low Epoetin Alfa Stratum ≤90 U/kg/week
[7] = Vada 300 mg, Week 11, High Epoetin Alfa Stratum >90 to <300 U/kg/week
[8] = Vada 300 mg, Week 11, Low Epoetin Alfa Stratum ≤90 U/kg/week
[9] = Vada 300 mg, Week 13, High Epoetin Alfa Stratum >90 to <300 U/kg/week
[10] = Vada 450 mg, Week 1 + 1, High Epoetin Alfa Stratum >90 to <300 U/kg/week
[11] = Vada 450 mg, Week 1 + 1, Low Epoetin Alfa Stratum ≤90 U/kg/week
[12] = Vada 450 mg, Week 1, High Epoetin Alfa Stratum >90 to <300 U/kg/week
[13] = Vada 450 mg, Week 1, Low Epoetin Alfa Stratum ≤90 U/kg/week
[14] = Vada 450 mg, Week 11, High Epoetin Alfa Stratum >90 to <300 U/kg/week
[15] = Vada 450 mg, Week 11, Low Epoetin Alfa Stratum ≤90 U/kg/week
[16] = Vada 450 mg, Week 13, Low Epoetin Alfa Stratum ≤90 U/kg/week
[17] = Vada 600 mg, Week 1 + 1, High Epoetin Alfa Stratum >90 to <300 U/kg/week
[18] = Vada 600 mg, Week 1, High Epoetin Alfa Stratum >90 to <300 U/kg/week
[19] = Vada 600 mg, Week 11, High Epoetin Alfa Stratum >90 to <300 U/kg/week
[20] = Vada 600 mg, Week 11, Low Epoetin Alfa Stratum ≤90 U/kg/week
[21] = Vada 600 mg, Week 13, High Epoetin Alfa Stratum >90 to <300 U/kg/week
[22] = Vada 600 mg, Week 13, Low Epoetin Alfa Stratum ≤90 U/kg/week
[23] = Vada 750 mg, Week 11, High Epoetin Alfa Stratum >90 to <300 U/kg/week
[24] = Vada 750 mg, Week 11, Low Epoetin Alfa Stratum ≤90 U/kg/week
[25] = Vada 750 mg, Week 13, High Epoetin Alfa Stratum >90 to <300 U/kg/week
[26] = Vada 750 mg, Week 13, Low Epoetin Alfa Stratum ≤90 U/kg/week
[27] = Vada 900 mg, Week 11, High Epoetin Alfa Stratum >90 to <300 U/kg/week
[28] = Vada 900 mg, Week 11, Low Epoetin Alfa Stratum ≤90 U/kg/week
[29] = low epoetin alfa stratum, Week 1 and Week 1+1 day

O=C(O)CNC(=O)c1ncc(-c2cccc(Cl)c2)cc1O [Compound 1, {[5-(3-chlorophenyl)-3-hydroxypyridine-2-carbonyl]amino}acetic acid]
Baseline-Unadjusted serum EPO AUC0-5, Geometric Mean [1]: 143.0 µg·h/mL | Baseline-Unadjusted serum EPO Cmax, Geometric Mean [1]: 39.0 µg/mL | Baseline-Unadjusted serum EPO Tmax, Median [1]: 1.63 h | Baseline-Unadjusted serum EPO AUC0-5, Geometric Mean [2]: 37.6 µg·h/mL | Baseline-Unadjusted serum EPO Cmax, Geometric Mean [2]: 10.7 µg/mL | Baseline-Unadjusted serum EPO Tmax, Median [2]: 4.78 h | Baseline-Unadjusted serum EPO AUC0-5, Geometric Mean [3]: 74.9 µg·h/mL | Baseline-Unadjusted serum EPO Cmax, Geometric Mean [3]: 20.5 µg/mL | Baseline-Unadjusted serum EPO Tmax, Median [3]: 2.02 h | Baseline-Unadjusted serum EPO AUC0-5, Geometric Mean [4]: 65.7 µg·h/mL | Baseline-Unadjusted serum EPO Cmax, Geometric Mean [4]: 19.3 µg/mL | Baseline-Unadjusted serum EPO Tmax, Median [4]: 2.75 h | Baseline-Unadjusted serum EPO AUC0-5, Geometric Mean [5]: 56.0 µg·h/mL | Baseline-Unadjusted serum EPO Cmax, Geometric Mean [5]: 17.5 µg/mL | Baseline-Unadjusted serum EPO Tmax, Median [5]: 2.00 h | Baseline-Unadjusted serum EPO AUC0-5, Geometric Mean [6]: 58.5 µg·h/mL | Baseline-Unadjusted serum EPO Cmax, Geometric Mean [6]: 17.6 µg/mL | Baseline-Unadjusted serum EPO Tmax, Median [6]: 4.50 h | Baseline-Unadjusted serum EPO AUC0-5, Geometric Mean [7]: 84.4 µg·h/mL | Baseline-Unadjusted serum EPO Cmax, Geometric Mean [7]: 23.5 µg/mL | Baseline-Unadjusted serum EPO Tmax, Median [7]: 0.97 h | Baseline-Unadjusted serum EPO AUC0-5, Geometric Mean [8]: 65.2 µg·h/mL | Baseline-Unadjusted serum EPO Cmax, Geometric Mean [8]: 20.0 µg/mL | Baseline-Unadjusted serum EPO Tmax, Median [8]: 3.29 h | Baseline-Unadjusted serum EPO AUC0-5, Geometric Mean [9]: 125 µg·h/mL | Baseline-Unadjusted serum EPO Cmax, Geometric Mean [9]: 39.2 µg/mL | Baseline-Unadjusted serum EPO Tmax, Median [9]: 0 h | Baseline-Unadjusted serum EPO AUC0-5, Geometric Mean [10]: 61.6 µg·h/mL | Baseline-Unadjusted serum EPO Cmax, Geometric Mean [10]: 18.1 µg/mL | Baseline-Unadjusted serum EPO Tmax, Median [10]: 0 h | Baseline-Unadjusted serum EPO AUC0-5, Geometric Mean [11]: 80.2 µg·h/mL | Baseline-Unadjusted serum EPO Cmax, Geometric Mean [11]: 23.9 µg/mL | Baseline-Unadjusted serum EPO Tmax, Median [11]: 4.51 h | Baseline-Unadjusted serum EPO AUC0-5, Geometric Mean [12]: 79.9 µg·h/mL | Baseline-Unadjusted serum EPO Cmax, Geometric Mean [12]: 23.4 µg/mL | Baseline-Unadjusted serum EPO Tmax, Median [12]: 4.53 h | Baseline-Unadjusted serum EPO AUC0-5, Geometric Mean [13]: 76.4 µg·h/mL | Baseline-Unadjusted serum EPO Cmax, Geometric Mean [13]: 25.5 µg/mL | Baseline-Unadjusted serum EPO Tmax, Median [13]: 4.50 h | Baseline-Unadjusted serum EPO AUC0-5, Geometric Mean [14]: 97.5 µg·h/mL | Baseline-Unadjusted serum EPO Cmax, Geometric Mean [14]: 24.9 µg/mL | Baseline-Unadjusted serum EPO Tmax, Median [14]: 0.88 h | Baseline-Unadjusted serum EPO AUC0-5, Geometric Mean [15]: 65.1 µg·h/mL | Baseline-Unadjusted serum EPO Cmax, Geometric Mean [15]: 17.7 µg/mL | Baseline-Unadjusted serum EPO Tmax, Median [15]: 2.08 h | Baseline-Unadjusted serum EPO AUC0-5, Geometric Mean [16]: 88.4 µg·h/mL | Baseline-Unadjusted serum EPO Cmax, Geometric Mean [16]: 28.8 µg/mL | Baseline-Unadjusted serum EPO Tmax, Median [16]: 3.94 h | Baseline-Unadjusted serum EPO AUC0-5, Geometric Mean [17]: 89.9 µg·h/mL | Baseline-Unadjusted serum EPO Cmax, Geometric Mean [17]: 27.2 µg/mL | Baseline-Unadjusted serum EPO Tmax, Median [17]: 2.47 h | Baseline-Unadjusted serum EPO AUC0-5, Geometric Mean [18]: 102.0 µg·h/mL | Baseline-Unadjusted serum EPO Cmax, Geometric Mean [18]: 33.2 µg/mL | Baseline-Unadjusted serum EPO Tmax, Median [18]: 0 h | Baseline-Unadjusted serum EPO AUC0-5, Geometric Mean [19]: 83.2 µg·h/mL | Baseline-Unadjusted serum EPO Cmax, Geometric Mean [19]: 23.4 µg/mL | Baseline-Unadjusted serum EPO Tmax, Median [19]: 0.92 h | Baseline-Unadjusted serum EPO AUC0-5, Geometric Mean [20]: 53.8 µg·h/mL | Baseline-Unadjusted serum EPO Cmax, Geometric Mean [20]: 18.5 µg/mL | Baseline-Unadjusted serum EPO Tmax, Median [20]: 4.50 h | Baseline-Unadjusted serum EPO AUC0-5, Geometric Mean [21]: 44.0 µg·h/mL | Baseline-Unadjusted serum EPO Cmax, Geometric Mean [21]: 49.9 µg/mL | Baseline-Unadjusted serum EPO Tmax, Median [21]: 4.63 h | Baseline-Unadjusted serum EPO AUC0-5, Geometric Mean [22]: 59.4 µg·h/mL | Baseline-Unadjusted serum EPO Cmax, Geometric Mean [22]: 20.7 µg/mL | Baseline-Unadjusted serum EPO Tmax, Median [22]: 7.08 h | Baseline-Unadjusted serum EPO AUC0-5, Geometric Mean [23]: 84.6 µg·h/mL | Baseline-Unadjusted serum EPO Cmax, Geometric Mean [23]: 21.9 µg/mL | Baseline-Unadjusted serum EPO Tmax, Median [23]: 4.06 h | Baseline-Unadjusted serum EPO AUC0-5, Geometric Mean [24]: 41.3 µg·h/mL | Baseline-Unadjusted serum EPO Cmax, Geometric Mean [24]: 12.5 µg/mL | Baseline-Unadjusted serum EPO Tmax, Median [24]: 4.50 h | Baseline-Unadjusted serum EPO AUC0-5, Geometric Mean [25]: 42.9 µg·h/mL | Baseline-Unadjusted serum EPO Cmax, Geometric Mean [25]: 14.1 µg/mL | Baseline-Unadjusted serum EPO Tmax, Median [25]: 0 h | Baseline-Unadjusted serum EPO AUC0-5, Geometric Mean [26]: 40.8 µg·h/mL | Baseline-Unadjusted serum EPO Cmax, Geometric Mean [26]: 13.2 µg/mL | Baseline-Unadjusted serum EPO Tmax, Median [26]: 4.50 h | Baseline-Unadjusted serum EPO AUC0-5, Geometric Mean [27]: 96.5 µg·h/mL | Baseline-Unadjusted serum EPO Cmax, Geometric Mean [27]: 30.2 µg/mL | Baseline-Unadjusted serum EPO Tmax, Median [27]: 0 h | Baseline-Unadjusted serum EPO AUC0-5, Geometric Mean [28]: 81.0 µg·h/mL | Baseline-Unadjusted serum EPO Cmax, Geometric Mean [28]: 24.4 µg/mL | Baseline-Unadjusted serum EPO Tmax, Median [28]: 0 h

O=C(O)CNC(=O)c1ncc(-c2cccc(Cl)c2)cc1O [vadadustat, {[5-(3-chlorophenyl)-3-hydroxypyridine-2-carbonyl]amino}acetic acid]
EPO concentration versus dose (high epoetin alfa stratum): No particular trend | EPO Cmax versus dose (high epoetin alfa stratum, Week 1): dose dependent | EPO Cmax and AUC versus comparator [29]: lower compared to the epoetin alfa treatment group | EPO Cmax and AUC versus dose [29]: dose proportional | EPO concentration versus dose (low epoetin alfa stratum, Week 1 and Week 1+1 day (300, 450 mg), Week 11 (150 to 600 mg)): Dose dependent increases in EPO concentrations
